Patent US4954156A, “N,N-dihalo-2-imidazolidinones and N-halo-2-oxazolidinones as urease and nitrification inhibitors” (Tennessee Valley Authority, priority 1989, dated 1990)
Where “and” joins values, the source holds several entries; their conditions need not be identical. Identical values can stand only once.

Columns and labels:
[1] = target: purified Jack Bean urease (Canavalia ensiformis, UniProt P07374); assay: Aqueous system (pH stat) urease inhibition test; assay type: biochemical; settings: 25° C
Chain of purified Jack Bean urease (P07374 whole entry, looked up): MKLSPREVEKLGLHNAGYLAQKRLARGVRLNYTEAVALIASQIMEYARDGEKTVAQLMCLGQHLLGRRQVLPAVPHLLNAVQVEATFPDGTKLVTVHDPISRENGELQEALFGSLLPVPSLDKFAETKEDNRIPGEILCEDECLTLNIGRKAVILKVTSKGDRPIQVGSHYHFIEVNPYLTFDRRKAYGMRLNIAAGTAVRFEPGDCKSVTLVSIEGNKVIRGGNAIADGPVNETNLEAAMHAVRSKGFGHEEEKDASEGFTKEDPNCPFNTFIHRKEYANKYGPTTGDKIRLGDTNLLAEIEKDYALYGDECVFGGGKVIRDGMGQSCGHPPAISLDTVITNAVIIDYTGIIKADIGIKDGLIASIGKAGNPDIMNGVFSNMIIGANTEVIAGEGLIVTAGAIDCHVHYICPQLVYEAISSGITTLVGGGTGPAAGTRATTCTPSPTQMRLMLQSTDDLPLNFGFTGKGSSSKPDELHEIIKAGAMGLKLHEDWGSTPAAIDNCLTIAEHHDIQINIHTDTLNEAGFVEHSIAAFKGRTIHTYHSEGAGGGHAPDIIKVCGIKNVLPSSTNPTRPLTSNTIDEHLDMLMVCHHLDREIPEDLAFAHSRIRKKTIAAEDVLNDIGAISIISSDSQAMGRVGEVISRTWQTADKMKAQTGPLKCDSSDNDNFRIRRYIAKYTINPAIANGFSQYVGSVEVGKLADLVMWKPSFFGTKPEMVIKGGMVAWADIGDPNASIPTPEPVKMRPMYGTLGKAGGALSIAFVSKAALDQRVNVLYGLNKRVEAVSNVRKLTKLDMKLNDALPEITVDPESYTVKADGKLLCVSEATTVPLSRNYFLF
Protocol: (§1) Embodiment 1: Urease activity of inhibitor test compounds may be evaluated either in aqueous or in soil systems. When aqueous systems are used, urea plus a test compound with possible urease inhibition activity and relatively pure urease enzyme are incubated together to determine the effects of the test compound on urease-catalyzed hydrolysis of urea. When soil systems are used, urea and the test compound are added to moist soil, and the urease enzyme is supplied from the soil. The main disadvantage of using soil systems is that the true activity of test compounds may be masked because of reactions between the test compound and soil. Thus, basic studies for understanding chemical structure-activity relationships are usually done in aqueous systems.
Aqueous System (pH Stat) Test Procedure: The aqueous system urease inhibition tests were conducted at 25° C using purified Jack Bean urease enzyme, 50,000-80,000 units per gram, a unit of urease will liberate 1 umole of NH3 from urea per minute at pH 7.0 at 25° C.
An appropriate amount of inhibitor [such as 37.0 uL (microliters) of a 1.169×10^(-3) M (moles/liter) inhibitor solution] and 100 uL of a solution of 13.9130 mg Jack Bean urease enzyme in 10.00 mL of water were diluted to 25.00 mL. This combined solution was allowed to sit undisturbed at 23° C. for twenty (20) minutes. Then 20.0 uL of a preservative solution was added to prevent degradation of the urease enzyme during the course of the experiment. The preservative solution contained 5.655×10^-4 moles/liter ethylenediaminetetraacetic acid (disodium salt) and 1.166×10^-3) moles/liter dithiothreitol.
Immediately after the addition of the preservative solution to the inhibitor/urease solution, 800 uL of a 0.1246 M urea solution was added and a computer assisted titrimeter was started. This titrimeter maintained a constant pH of 6.97 during the course of the experiment by neutralizing the ammonia (resulting from urease hydrolysis of urea) with 0.01142 M hydrochloric acid (HCl). The volume (measured to 0.001 mL) of HCl added was automatically recorded every 15 seconds for up to 20.0 minutes or until a total volume of 2.500 mL of HCl was added.
Experiments also were conducted without inhibitor (blank) and with the inhibitor PPDA for comparison. The experiments were replicated, and the percent inhibition for each of the inhibitors at the various concentrations was calculated as follows:
% inhibition=(kinhibitor /kblank)×100 (4)
where kinhibitor and kblank are the average rates of HCl addition for the inhibitor and blank experiments, respectively. The rates of HCl addition were calculated by linear regression of the titration curves.

[2] = system: soil urease (urease-active Hastings silt loam soil); assay: Banded soil system urease inhibition test (Hastings silt loam); settings: 410 mg urea + 41 mg inhibitor
Protocol: as §1
Soil System Test Procedure: The soil system test procedure used was a modification of the previous procedures of other researchers L. A. Douglas and J. M. Bremner, Soil Biol. Biochem. 3, 309-315 (1971) and J. M. Bremner and R. L. Mulvaney, "Urease Activity in Soils," Soil Enzymes 5, R. G. Burns, editor, Academic Press, 149-195 (1978)]. In this modified procedure powdered mixtures of urea and test compounds were applied in narrow bands in the soil rather than being mixed throughout the soil. The banded configuration also results in concentration gradients of urea, urea hydrolysis products, test compounds, and test compound decomposition products similar to those in the immediate vicinity of urea granules containing the test compounds. Another advantage of the banded configuration compared with mixing throughout the soil is that slightly soluble test compounds can be easily band applied, whereas it is difficult to achieve a known degree of mixing of a small quantity of slightly soluble test compound with soil. The banded configuration also enables testing for urease inhibition under realistic soil conditions prior to the development of techniques for cogranulating a wide range of test compounds with urea.
A detailed description of the banded soil testing procedure follows. Urease-active soil (Hastings silt loam) was moistened to a moisture content of 20 percent dry weight basis) and preincubated at room temperature for two days. Plexiglas containers (6×6×6 cm) were half filled with soil and packed to a bulk density of 1.0 g/cm . Urea (410 mg) or urea (410 mg) plus inhibitor (41 mg, thoroughly mixed with the urea) was distributed in a narrow band about 0.5 cm wide and 6 cm long on the soil surface. The containers then were filled with soil, again packing to a bulk density of 1.0 g/cm^3. The containers were incubated at 25° C. for the desired reaction period, after which the containers were frozen to about -5° C. to stop urea hydrolysis. Immediately prior to extracting the remaining urea from the soil, said soil was allowed to thaw. Soil from each container was thoroughly mixed, and a 10-g sample was extracted with 100 ml of 2 M KCl containing phenylmercuric acetate to prevent urea hydrolysis during handling [L. A. Douglas and J. M. Bremner, Soil. Sci. Soc. Am. Proc. 34, 859-862 (1970)]. Urea in the extracts was determined colorimetrically as a measure of unhydrolyzed urea and the results expressed as percent unhydrolyzed urea-N.
^a The plexiglas containers measured 6 × 6 × 6 cm.
Hastings silt loam soil was utilized and packed to a bulk density of 1
gm/cm^3 dry basis. The soil was wet to near field capacity (20%
moisture) and 260 g of wetted soil (216 g dry soil) was added per
container. The containers were packed half full, urea and inhibitor were
added, and the remaining soil was added. The amount of urea added = 410 m

[3] = system: nitrification of ammonium nitrogen in soil; assay: Soil nitrification inhibition test (Mountainview silt loam, banded); settings: for % inhibition (nitrification) / Net mg NO2N / Net mg NO3N: 25° C, 410 mg urea + 41 mg inhibitor
Protocol: Embodiment 2: The N-Halamine compounds were tested for nitrification inhibition using the soil testing procedure described below.
Mountainview silt loam soil was screened through a 2 mm sieve. Plexiglas containers (8×8×6 cm) were packed half full with the soil and packed to a bulk density of 1.0 g/cm^3 and wetted to field capacity (approximately 20 weight percent moisture). The urea 410 mg per container) and inhibitor (41 mg per container) were added in a narrow band (0.5 cm wide X 6 cm long), and additional soil was added to fill the containers. The total amount of dry soil added was 384 g. The containers were incubated at 25° C. During incubation the containers were checked periodically for moisture loss and additional water added as needed to maintain moisture levels.
The individual containers were removed from the incubator at 1, 2, 3, 4, and 5 week intervals. After removal from the incubator the contents of the container were transferred to a plastic bag and thoroughly mixed. A 10-g sample of soil (dry basis) was taken from the bag and extracted with 100 ml of 2 N KCL. The extract was filtered through Whatman #41 filter paper and refrigerated until analyzed. Samples were analyzed for NO3-N- NO2-N- and urea-N using a colorimetric procedure. Some samples also were analyzed for NH4-N.
The percent nitrification inhibition was calculated according to the method of Bundy and Bremner [G. L. Bundy and J. M. Bremner, Soil Sci. Soc. Am. Proc. 37, 396-398 (1973)]
% nitrification inhibition=[(C-S)/C]×100
where C=net amount of NO3-N produced in the control (no inhibitor added), and S=net amount of NO3-N produced in the inhibitor treated sample.
^a Concentrations are in net mg/container. All containers had 384 g
soil (dry), 410 mg urea (188.6 mg N) and 41 mg inhibitor. Samples were
extracted 10 g → 100 mls 2N KCl. The formulas used for calculation
where C = net NO3N produced in control (no inhibitor), S = net
NO3N produced in inhibitor treated sample, net NO3N =
(NO3N) - (soil NO3N), and net NO2N = (NO2N) - (soil
NO2N). Values are averages of two replicate samples.

In the case of CC1(C)N(Cl)C(=O)N(Br)C1(C)C [ABC, 1-bromo-3-chloro-4,4,5,5-tetramethyl-2-imidazolidinone], the “% urease inhibition” value ([1]; inhibitor 0.432 x 10^-8 moles/experiment) is reported as 93%, the “% urease inhibition” value ([1]; inhibitor 1.430 x 10^-8 moles/experiment) is reported as 100% and the “% unhydrolyzed urea-N” value ([2]; 3 days incubation at 25° C) is reported as 84.71% and 84.7%. The “PPM urea-N” value ([2]; 3 days incubation at 25° C) was 75.0 PPM, the “% unhydrolyzed urea-N” value ([2]; 6 days incubation at 25° C) was 53.65% and 53.7% and the “PPM urea-N” value ([2]; 6 days incubation at 25° C) was 47.5 PPM. For the same molecule, the “% inhibition (nitrification)” value ([3]; 1 week) was 100.0%, the “Net mg NO2N” value ([3]; 1 week) was -0.05 mg/container and the “Net mg NO3N” value ([3]; 1 week) was 0.0 mg/container. For the same molecule, the “% inhibition (nitrification)” value ([3]; 2 weeks) was 100.0%, the “Net mg NO2N” value ([3]; 2 weeks) was 0.04 mg/container and the “Net mg NO3N” value ([3]; 2 weeks) was 0.0 mg/container. For the same molecule, the “% inhibition (nitrification)” value ([3]; 3 weeks) was 100.0%, the “Net mg NO2N” value ([3]; 3 weeks) was 0.08 mg/container and the “Net mg NO3N” value ([3]; 3 weeks) was 0.0 mg/container. For the same molecule, the “% inhibition (nitrification)” value ([3]; 4 weeks) was 100.0%, the “Net mg NO2N” value ([3]; 4 weeks) was 1.68 mg/container and the “Net mg NO3N” value ([3]; 4 weeks) was 0.0 mg/container. For the same molecule, the “% inhibition (nitrification)” value ([3]; 5 weeks) was 99.6%, the “Net mg NO2N” value ([3]; 5 weeks) was 1.67 mg/container and the “Net mg NO3N” value ([3]; 5 weeks) was 0.8 mg/container. For the same molecule, the “Nitrite accumulation in the soil” value ([3]; during the 5 weeks incubation, greater than with dicyandiamide) was “well within plant tolerance levels” and the percent nitrification inhibition ([3]; separate experiment (Examples VII, IX): sampled only at end of 5-week incubation, no dicyandiamide comparison) was 85.6%.
